# Experimental data published in patent US10980889B1 (Revolution Medicines, Inc., priority 2018, dated 2021).
# Where two headings read alike, the source gives them in different places.
# Assays:
# Conditions in all cases: two to four hours at 37° C.; for IC50: Homo sapiens, 4 h
# P-Akt (S473) = experiment: Cell based AlphaLISA assay, inhibition of P-Akt (S473) in MDA-MB-468 cells (mTORC2 substrate)
# Outline: (§1)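 In MDA-MB-468 cells, phosphorylation of 4EBP1 (Thr37/46), P70S6K (Thr389) and AKT (Ser473) was measured after incubation with inhibitor by AlphaLISA SureFire Ultra on cell lysates, in duplicate. IC50 values came from control-normalized concentration-response regression.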
# P-4E-BP1 (T37/46) = experiment: Cell based AlphaLISA assay, inhibition of P-4E-BP1 (T37/46) in MDA-MB-468 cells (mTORC1 substrate)
# Outline: as §1
# P-P70S6K (T389) = experiment: Cell based AlphaLISA assay, inhibition of P-P70S6K (T389) in MDA-MB-468 cells (mTORC1 substrate)
# Outline: as §1
# [1] = AlphaLisa, read-out: pIC50 for Inhibition of mTORC1 and mTORC2 Substrate Phosphorylation p-AKT1/2/3-(S473) (converted)
# [2] = AlphaLisa, read-out: pIC50 for Inhibition of mTORC1 and mTORC2 Substrate Phosphorylation P-4E-BP1-(T37/46) (converted)
# [3] = AlphaLisa, read-out: pIC50 for Inhibition of mTORC1 and mTORC2 Substrate Phosphorylation p-P70S6K-(T389) (converted)
Structure (SMILES),IC50 (P-Akt (S473); [1]),IC50 (P-4E-BP1 (T37/46); [2]),IC50 (P-P70S6K (T389); [3]),also measured
CO[C@H]1C[C@@H]2CC[C@@H](C)[C@@](O)(O2)C(=O)C(=O)N2CCCC[C@H]2C(=O)O[C@H]([C@H](C)C[C@@H]2CC[C@@H](OC(=O)NCc3cnc(N4CCN(c5ncc(C(=O)NCCOCCOCCOCCOCCC(=O)N6CCc7cc(Cn8nc(-c9ccc%10oc(N)nc%10c9)c9c(N)ncnc98)ccc7C6)c(N)n5)CC4)nc3)[C@H](OC)C2)C[C@@H](OC)[C@H](C)/C=C(\C)[C@@H](O)[C@@H](OC)C(=O)[C@H](C)C[C@H](C)/C=C/C=C/C=C/1C [Example 94],< 3.16 nM,< 3.16 nM,< 1 nM,
CO[C@H]1C[C@@H]2CC[C@@H](C)[C@@](O)(O2)C(=O)C(=O)N2CCCC[C@H]2C(=O)O[C@H]([C@H](C)C[C@@H]2CC[C@@H](OC(=O)NCc3cnc(N4CCN(c5ncc(C(=O)NCCOCCOCCOCCOCCC(=O)N6CCc7cc(Cn8nc(-c9cnc%10[nH]ccc%10c9)c9c(N)ncnc98)ccc7C6)c(N)n5)CC4)nc3)[C@H](OC)C2)CC(=O)[C@H](C)/C=C(\C)[C@@H](O)[C@@H](OC)C(=O)[C@H](C)C[C@H](C)/C=C/C=C/C=C/1C [Example 96],31.6 to 1000 nM,< 3.16 nM,< 1 nM,
CO[C@H]1C[C@@H]2CC[C@@H](C)[C@@](O)(O2)C(=O)C(=O)N2CCCC[C@H]2C(=O)O[C@H]([C@H](C)C[C@@H]2CC[C@@H](OC(=O)NCCOCCOCCOCCOCCOCCOCCOCCOCCC(=O)NCCS(=O)(=O)c3ccc(C(=O)N4CCOc5ccc(-c6ccc(N)nc6)cc5C4)c(C)c3)[C@H](OC)C2)C[C@@H](OC)[C@H](C)/C=C(\C)[C@@H](O)[C@@H](OC)C(=O)[C@H](C)C[C@H](C)/C=C/C=C/C=C/1C [Example 42],3.16 to 31.6 nM,< 3.16 nM,< 1 nM,
"CC(C)n1nc(-c2ccc3oc(N)nc3c2)c2c(N)ncnc21 [MLN-128, reference compound]",,,,"IC50 (P-Akt (S473); AlphaLisa SureFire Ultra, read-out: IC50 for Inhibition of mTORC1 and mTORC2 Substrate Phosphorylation (nM) p-AKT1/2/3-(5473)): 3.7 nM; IC50 (P-4E-BP1 (T37/46); AlphaLisa SureFire Ultra, read-out: IC50 for Inhibition of mTORC1 and mTORC2 Substrate Phosphorylation (nM) p-4E-BP1-(T37/46)): 16 nM; IC50 (P-P70S6K (T389); AlphaLisa SureFire Ultra, read-out: IC50 for Inhibition of mTORC1 and mTORC2 Substrate Phosphorylation (nM) p-P7056K-(T389)): 1.4 nM"
CO[C@H]1C[C@@H]2CC[C@@H](C)[C@@](O)(O2)C(=O)C(=O)N2CCCC[C@H]2C(=O)O[C@H]([C@H](C)C[C@@H]2CC[C@@H](OC(=O)NCc3cnc(N4CCN(C(=O)CN(C)CC(=O)NCCOCCOCCC(=O)N5CCc6cc(Cn7nc(-c8ccc9oc(N)nc9c8)c8c(N)ncnc87)ccc6C5)CC4)nc3)[C@H](OC)C2)CC(=O)[C@H](C)/C=C(\C)[C@@H](O)[C@@H](OC)C(=O)[C@H](C)C[C@H](C)/C=C/C=C/C=C/1C [Example 87],3.16 to 31.6 nM,< 3.16 nM,< 1 nM,
CO[C@H]1C[C@@H]2CC[C@@H](C)[C@@](O)(O2)C(=O)C(=O)N2CCCC[C@H]2C(=O)O[C@H]([C@H](C)C[C@@H]2CC[C@@H](OC(=O)NCCOCCOCCOCCOCCOCCOCCOCCOCCC(=O)NCc3ccc(Cn4nc(-c5ccc6oc(N)nc6c5)c5c(N)ncnc54)cc3)[C@H](OC)C2)C[C@@H](OC)[C@H](C)/C=C(\C)[C@@H](O)[C@@H](OC)C(=O)[C@H](C)C[C@H](C)/C=C/C=C/C=C/1C [Example 37],> 1000 nM,< 3.16 nM,< 1 nM,
CO[C@H]1C[C@@H]2CC[C@@H](C)[C@@](O)(O2)C(=O)C(=O)N2CCCC[C@H]2C(=O)O[C@H]([C@H](C)C[C@@H]2CC[C@@H](OC(=O)NCc3cnc(N4CCN(C(=O)CCOCCN5CCN(c6ncc(C(=O)N7CCc8cc(Cn9nc(-c%10ccc%11oc(N)nc%11c%10)c%10c(N)ncnc%109)ccc8C7)cn6)CC5)CC4)nc3)[C@H](OC)C2)CC[C@H](C)/C=C(\C)[C@@H](O)[C@@H](OC)C(=O)[C@H](C)C[C@H](C)/C=C/C=C/C=C/1C [Example 118],3.16 to 31.6 nM,< 3.16 nM,< 1 nM,
CO[C@H]1C[C@@H]2CC[C@@H](C)[C@@](O)(O2)C(=O)C(=O)N2CCCC[C@H]2C(=O)O[C@H]([C@H](C)C[C@@H]2CC[C@@H](OC(=S)NCCOCCOCCOCCOCCOCCOCCOCCOCCC(=O)N3CCc4cc(Cn5nc(-c6ccc7oc(N)nc7c6)c6c(N)ncnc65)ccc4C3)[C@H](OC)C2)C[C@@H](OC)[C@H](C)/C=C(\C)[C@@H](O)[C@@H](OC)C(=O)[C@H](C)C[C@H](C)/C=C/C=C/C=C/1C [Example 78],,,,pIC50 for Inhibition of mTORC1 and mTORC2 Substrate Phosphorylation p-AKT1/2/3-(S473) (P-Akt (S473); AlphaLisa): +++ (≥8.5); pIC50 for Inhibition of mTORC1 and mTORC2 Substrate Phosphorylation P-4E-BP1-(T37/46) (P-4E-BP1 (T37/46); AlphaLisa): +++ (≥8.5); pIC50 for Inhibition of mTORC1 and mTORC2 Substrate Phosphorylation p-P70S6K-(T389) (P-P70S6K (T389); AlphaLisa): +++ (≥9)
CO[C@H]1C[C@@H]2CC[C@@H](C)[C@@](O)(O2)C(=O)C(=O)N2CCCC[C@H]2C(=O)O[C@H]([C@H](C)C[C@@H]2CC[C@@H](OC(=O)NCc3cnc(N4CCN(C(=O)CCOCCN5CCN(C(=O)CCC(=O)N6CCc7cc(Cn8nc(-c9ccc%10oc(N)nc%10c9)c9c(N)ncnc98)ccc7C6)CC5)CC4)nc3)[C@H](OC)C2)C[C@@H](OC)[C@H](C)/C=C(\C)[C@@H](O)[C@@H](OC)C(=O)[C@H](C)C[C@H](C)/C=C/C=C/C=C/1C [Example 133],3.16 to 31.6 nM,< 3.16 nM,< 1 nM,
CO[C@H]1C[C@@H]2CC[C@@H](C)[C@@](O)(O2)C(=O)C(=O)N2CCCC[C@H]2C(=O)O[C@H]([C@H](C)C[C@@H]2CC[C@@H](OC(=O)N3CCc4nc(N5CCN(C(=O)CCOCCN6CCN(c7ncc(C(=O)N8CCc9cc(Cn%10nc(-c%11ccc%12[nH]ccc%12c%11)c%11c(N)ncnc%11%10)ccc9C8)cn7)CC6)CC5)ncc4C3)[C@H](OC)C2)CC(=O)[C@H](C)/C=C(\C)[C@@H](O)[C@@H](OC)C(=O)[C@H](C)C[C@H](C)/C=C/C=C/C=C/1C [Example 127],> 1000 nM,3.16 to 31.6 nM,< 1 nM,
CO[C@H]1C[C@@H]2CC[C@@H](C)[C@@](O)(O2)C(=O)C(=O)N2CCCC[C@H]2C(=O)O[C@H]([C@H](C)C[C@@H]2CC[C@@H](OC(=O)NCCOCCOCCOCCOCCOCCOCCOCCOCCC(=O)NCc3ccc(Cn4nc(-c5ccc6oc(N)nc6c5)c5c(N)ncnc54)cc3)[C@H](OC)C2)C[C@H](N=[N+]=[N-])[C@H](C)/C=C(\C)[C@@H](O)[C@@H](OC)C(=O)[C@H](C)C[C@H](C)/C=C/C=C/C=C/1C [Example 82],,,,pIC50 for Inhibition of mTORC1 and mTORC2 Substrate Phosphorylation p-AKT1/2/3-(S473) (P-Akt (S473); AlphaLisa): − (<6); pIC50 for Inhibition of mTORC1 and mTORC2 Substrate Phosphorylation P-4E-BP1-(T37/46) (P-4E-BP1 (T37/46); AlphaLisa): +++ (≥8.5); pIC50 for Inhibition of mTORC1 and mTORC2 Substrate Phosphorylation p-P70S6K-(T389) (P-P70S6K (T389); AlphaLisa): +++ (≥9)
CO[C@H]1C[C@@H]2CC[C@@H](C)[C@@](O)(O2)C(=O)C(=O)N2CCCC[C@H]2C(=O)O[C@H]([C@H](C)C[C@@H]2CC[C@@H](OC(=O)N3CCc4nc(N5CCN(c6ncc(C(=O)NCCOCCOCCOCCOCCC(=O)N7CCc8cc(Cn9nc(-c%10cnc%11[nH]ccc%11c%10)c%10c(N)ncnc%109)ccc8C7)c(N)n6)CC5)ncc4C3)[C@H](OC)C2)CC(=O)[C@H](C)/C=C(\C)[C@@H](O)[C@@H](OC)C(=O)[C@H](C)C[C@H](C)/C=C/C=C/C=C/1C [Example 97],3.16 to 31.6 nM,< 3.16 nM,< 1 nM,
CO[C@H]1C[C@@H]2CC[C@@H](C)[C@@](O)(O2)C(=O)C(=O)N2CCCC[C@H]2C(=O)O[C@H]([C@H](C)C[C@@H]2CC[C@@H](OC(=S)NCc3cnc(N4CCN(C(=O)CCOCCN5CCN(c6ncc(C(=O)N7CCc8cc(Cn9nc(-c%10ccc%11oc(N)nc%11c%10)c%10c(N)ncnc%109)ccc8C7)cn6)CC5)CC4)nc3)[C@H](OC)C2)CC(=O)[C@H](C)/C=C(\C)[C@@H](O)[C@@H](OC)C(=O)[C@H](C)C[C@H](C)/C=C/C=C/C=C/1C [Example 119],3.16 to 31.6 nM,< 3.16 nM,< 1 nM,
CO[C@H]1C[C@@H]2CC[C@@H](C)[C@@](O)(O2)C(=O)C(=O)N2CCCC[C@H]2C(=O)O[C@H]([C@H](C)C[C@@H]2CC[C@@H](OC(=O)NCc3cnc(N4CCN(CCOCCN5CCN(c6ncc(C(=O)N7CCc8cc(Cn9nc(-c%10ccc%11oc(N)nc%11c%10)c%10c(N)ncnc%109)ccc8C7)cn6)CC5)CC4)nc3)[C@H](OC)C2)C[C@@H](OC)[C@H](C)/C=C(\C)[C@@H](O)[C@@H](OC)C(=O)[C@H](C)C[C@H](C)/C=C/C=C/C=C/1C [Example 128],31.6 to 1000 nM,3.16 to 31.6 nM,< 1 nM,
CO[C@H]1C[C@@H]2CC[C@@H](C)[C@@](O)(O2)C(=O)C(=O)N2CCCC[C@H]2C(=O)O[C@H]([C@H](C)C[C@@H]2CC[C@@H](OC(=S)NCCOCCOCCOCCOCCOCCOCCOCCOCCC(=O)NCc3ccc(Cn4nc(-c5ccc6oc(N)nc6c5)c5c(N)ncnc54)cc3)[C@H](OC)C2)C[C@@H](O)[C@H](C)/C=C(\C)[C@@H](O)[C@@H](OC)C(=O)[C@H](C)C[C@H](C)/C=C/C=C/C=C/1C [Example 83],,,,pIC50 for Inhibition of mTORC1 and mTORC2 Substrate Phosphorylation p-AKT1/2/3-(S473) (P-Akt (S473); AlphaLisa): ++ (8.5 > pIC50 ≥ 7.5); pIC50 for Inhibition of mTORC1 and mTORC2 Substrate Phosphorylation P-4E-BP1-(T37/46) (P-4E-BP1 (T37/46); AlphaLisa): +++ (≥8.5); pIC50 for Inhibition of mTORC1 and mTORC2 Substrate Phosphorylation p-P70S6K-(T389) (P-P70S6K (T389); AlphaLisa): +++ (≥9)
